Reference: patent US20090062401A1, “DECALINE-DERIVED COMPOUNDS AS […] ACTIVE AGENTS” (UNIVERSITAT DORTMUND, priority 2004, published 2009)

Molecular target: VHR (Homo sapiens, UniProt P51452)
Test: VHR phosphatase inhibition, general phosphatase assay using para-nitrophenylphosphate
Format: biochemical
Conditions: read-out: IC50 Target VHR
Source text: Assays protocols for the other enzymes mentioned herein (MtPTPA, PP1, VHR, PTP1B) are disclosed in Schweizer R A S, Atanasov, G A, Frey B M, and Odermatt A, Mol. Cell. Endocrinol. 2003, 212, 41-49 and Barratte, B., Meijer L., Galaktionov K. & Beach D, Anticancer Res. 1992, 12, 873-880. For determination of the phosphatase activity, a general phosphatase assay using para-nitrophenylphosphate was applied.

VHR, sequence (P51452 whole entry, species assumed): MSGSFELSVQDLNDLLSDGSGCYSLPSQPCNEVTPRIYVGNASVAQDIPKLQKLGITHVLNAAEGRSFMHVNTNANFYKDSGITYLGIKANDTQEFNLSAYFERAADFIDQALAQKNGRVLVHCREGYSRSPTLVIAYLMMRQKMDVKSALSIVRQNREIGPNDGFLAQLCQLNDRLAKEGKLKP

IC50 [µM] | Compound
10 to 50 | CC1(CCc2ccccc2)C(=O)/C(=C/c2ccc(I)cc2)CC2(C)C1CCCC21OCCO1 (centres unmarked) [Compound 402, (7′E)-7′-(4-iodo-benzylidene)-5′,8a′-dimethylhexahydro-5′-(2-phenylethyl)-2′H-spiro[1,3-dioxolane-2,1′-naphthalen]-6′(5′H)-one]
10 to 50 | C=CC[C@@]12C(=CC(=O)/C(=C/c3ccc(C)o3)[C@@H]1C)CCC[C@@H]2O [Compound 242, (3E,4R,4aS,5S)-4a-Allyl-4,4a,5,6,7,8-hexahydro-5-hydroxy-4-methyl-3-[(5-methylfuran-2-yl)methylen]naphthalen-2(3H)-on]
10 to 50 | CCCCCCCCc1ccc(/C=C2\C[C@@]3(C)C(=C(C)C2=O)CCC[C@@H]3O)c(C)c1 [Compound 20, (3E,4aS,5S)-3-(2-Methyl-4-octyl-benzyliden)-4,4a,5,6,7,8-hexahydro-5-hydroxy-1,4a-dimethyl-naphthalen-2(3H)-one]
10 to 50 | C=C(C)[C@H]1CC=C(/C=C2\C[C@@]3(C)C(=CC2=O)CCC[C@@H]3O)CC1 [Compound 286, (3E,4aS,5S)-4,4a,5,6,7,8-Hexahydro-5-hydroxy-4a-methyl-3-{[(R)-4-(prop-1-en-2-yl)cyclohex-1-enyl]methylen}naphthalen-2(3H)-one]
10 to 50 | CCOC(=O)CC1(C)C(=O)CC[C@@]2(C)C1CCC[C@@H]2O (stereo partly drawn) [Compound 153, Ethyl-2-[(4aS,5S)-decahydro-5-hydroxy-1,4a-dimethyl-2-oxonaphthalen-1-yl]acetat]
10 to 50 | CC1=C2CCC[C@H](O)[C@@]2(C)C/C(=C\c2ccc(Cl)cc2)C1=O [Compound 7, (3E,4aS,5S)-3-(4-Chlorobenzyliden)-4,4a,5,6,7,8-hexahydro-5-hydroxy-1,4a-dimethylnaphthalen-2(3H)-one]
10 to 50 | CC1=C2CCC[C@H](O)[C@@]2(C)C/C(=C\c2ccc(O)c(O)c2O)C1=O [Compound 107, (3E,4aS,5S)-3-(2,3,4-Trihydroxybenzyliden)-4,4a,5,6,7,8-hexahydro-5-hydroxy-1,4a-dimethylnaphthalen-2(3H)-one]
10 to 50 | CCCCCCC#Cc1ccc(/C=C2\C[C@@]3(Cc4ccccc4)C(=C(C)C2=O)CCC[C@@H]3O)cc1 [Compound 126, (3E,4aS,5S)-3-[4-(Oct-1-inyl)benzyliden]-4a-benzyl-4,4a,5,6,7,8-hexahydro-5-hydroxy-1-methylnaphthalen-2(3H)-one]
10 to 50 | C[C@@H]1C(O)CC[C@]2(C)C(=O)/C(=C/c3ccco3)CCC12 (stereo partly drawn) [Compound 266, (E,5S,8aS)-2-[(Furan-2-yl)methylen]-octahydro-6-hydroxy-5,8a-dimethylnaphthalen-1(2H)-one]
10 to 50 | C[C@]12C/C(=C\c3ccc(C#Cc4ccccc4)cc3)C(=O)C=C1CCC[C@@H]2O [Compound 136, (3E,4aS,5S)-3-[4-(2-Phenylethinyl)benzyliden]-4,4a,5,6,7,8-hexahydro-5-hydroxy-4a-methylnaphthalen-2(3H)-one]
10 to 50 | CC1=C2CCC[C@H](O)[C@@]2(C)C/C(=C\c2c(C)c(C)c(C)c(C)c2C)C1=O [Compound 215, (3E,4aS,5S)-3-(2,3,4,5,6-Pentamethylbenzyliden)-4,4a,5,6,7,8-hexahydro-5-hydroxy-1,4a-dimethylnaphthalen-2(3H)-one]
< 10 | CC1=C2CCC[C@H](O)[C@@]2(C)C/C(=C\c2cc(C)cs2)C1=O [Compound 19, (3E,4aS,5S)-4,4a,5,6,7,8-Hexahydro-5-hydroxy-1,4a-dimethyl-3-[(4-methylthiophen-2-yl)methylen]naphthalen-2(3H)-one]
10 to 50 | C[C@]12C/C(=C\c3ccccc3OCc3ccccc3)C(=O)C=C1CCC[C@@H]2O [Compound 223, (3E,4aS,5S)-3-[2-(Benzyloxy)benzyliden]-4,4a,5,6,7,8-hexahydro-5-hydroxy-4a-methylnaphthalen-2(3H)-one]
10 to 50 | COc1cc(OC)c(OC)cc1/C=C1\CCC2[C@H](C)C(O)CC[C@]2(C)C1=O (stereo partly drawn) [Compound 267, (E,5S,8aS)-2-(2,4,5-Trimethoxy-benzyliden)-octahydro-6-hydroxy-5,8a-dimethylnaphthalen-1(2H)-one]
